From PubChem BioAssay (NCI)
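Interpolation was linear, between the two tested concentrations surrounding the appropriate level; five concentrations were tested over 48 hours in 96-well plates. TGI marks complete inhibition of growth.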

Columns and labels:
Test in all cases: NCI anticancer screen, dose series, 48 h
[1] = test system: SNB-75 CNS
[2] = test system: HOP-92 NSCLC
[3] = test system: COLO 205 colon
[4] = test system: SN12C renal
[5] = test system: SNB-78 CNS
[6] = test system: SK-MEL-28 melanoma
[7] = test system: UO-31 renal
[8] = test system: RPMI-8226 leukemia
[9] = test system: DMS 273 small cell lung
[10] = test system: CAKI-1 renal
[11] = test system: NCI-H522 lung
[12] = test system: SK-OV-3 ovarian
[13] = test system: SNB-19 CNS
[14] = test system: HOP-62 NSCLC
[15] = test system: MOLT-4 leukemia
[16] = test system: CCRF-CEM leukemia
[17] = test system: OVCAR-3 ovarian
[18] = test system: U251 CNS
[19] = test system: SF-268 CNS
[20] = test system: RXF 393 renal
[21] = test system: K-562 leukemia
[22] = test system: EKVX NSCLC
[23] = test system: SF-539 CNS
[24] = test system: UACC-257 melanoma
[25] = test system: IGROV1 ovarian
[26] = test system: A498 renal
[27] = test system: NCI-H460 lung
[28] = test system: KM12 colon
[29] = test system: ACHN renal
[30] = test system: LXFL 529 NSCLC
[31] = test system: KM20L2 colon
[32] = test system: M19-MEL melanoma
[33] = test system: HCT-15 colon
[34] = test system: HCC-2998 colon
[35] = test system: UACC-62 melanoma
[36] = test system: LOX IMVI melanoma
[37] = test system: 786-0 renal
[38] = test system: NCI-H23 lung
[39] = test system: A549 NSCLC
[40] = test system: SW-620 colon
[41] = test system: NCI-H226 lung
[42] = test system: SF-295 CNS
[43] = test system: OVCAR-4 ovarian
[44] = test system: SR leukemia
[45] = test system: SK-MEL-2 melanoma
[46] = test system: DMS 114 small cell lung
[47] = test system: HT29 colon
[48] = test system: HL-60(TB) leukemia
[49] = test system: OVCAR-8 ovarian
[50] = test system: TK-10 renal
[51] = test system: HCT-116 colon
[52] = test system: SK-MEL-5 melanoma
[53] = test system: DLD-1 colon
[54] = test system: OVCAR-5 ovarian
[55] = test system: M14 melanoma
[56] = test system: MALME-3M melanoma

Measured: TGI

CC1(SCC(N)C(=O)O)CC(=O)NC1=O (centres undefined)
> 100 µM: [1] | [2] | [3] | [4] | [5] | [6] | [7] | [8] | [9] | [10] | [11] | [12] | [13] | [14] | [15] | [16] | [17] | [18] | [19] | [20] | [21] | [22] | [23] | [24] | [25] | [26] | [27] | [28] | [29] | [30] | [31] | [32] | [33] | [34] | [35] | [36] | [37] | [38] | [39] | [40] | [41] | [42] | [43] | [44] | [45] | [46] | [47] | [48] | [49] | [50] | [51] | [52]

COc1nc(C(=O)O)c(Cl)c(OC)c1Cl
> 100 µM: [2] | [3] | [4] | [53] | [6] | [7] | [8] | [10] | [11] | [12] | [13] | [14] | [15] | [16] | [17] | [54] | [55] | [19] | [20] | [22] | [23] | [24] | [25] | [26] | [27] | [56] | [28] | [29] | [31] | [32] | [34] | [35] | [37] | [38] | [39] | [40] | [42] | [43] | [44] | [45] | [46] | [47] | [48] | [49] | [50] | [51] | [52]

CCOC(=O)c1cnc2oc(-c3ccc(OC)cc3)nn2c1=O
> 100 µM: [1] | [2] | [3] | [4] | [5] | [6] | [7] | [8] | [9] | [11] | [12] | [13] | [15] | [17] | [54] | [18] | [19] | [20] | [21] | [22] | [23] | [24] | [25] | [56] | [28] | [30] | [31] | [32] | [33] | [34] | [35] | [37] | [38] | [39] | [40] | [41] | [42] | [43] | [45] | [46] | [47] | [49] | [50] | [51] | [52]

c1ccc(C2=NOC3COc4ccccc4OCC23)cc1 (centres undefined)
> 100 µM: [1] | [3] | [4] | [5] | [6] | [7] | [8] | [9] | [10] | [11] | [12] | [13] | [14] | [15] | [16] | [17] | [18] | [55] | [19] | [20] | [21] | [22] | [23] | [24] | [26] | [27] | [56] | [28] | [29] | [30] | [31] | [33] | [34] | [35] | [36] | [37] | [38] | [39] | [40] | [42] | [43] | [44] | [45] | [46] | [47] | [48] | [49] | [50] | [51] | [52]
